Experimental data published in PMC12388506, “Preclinical Evaluation of 2-Aminobenzothiazole Derivatives: In Silico, In Vitro, and Preliminary In Vivo Studies as Diabetic Treatments and Their Complications” (Molecules, 2025).

Legend:
TNF-α = assay: Ex vivo serum TNF-α quantification; assay type: in vivo, rat
Description: At the end of the study, animals fasted for 12 h and were taken to a humane endpoint, where blood samples were obtained. These were kept at room temperature for 30 min and then centrifuged at 4000 RPM for 15 min at 4 °C. Finally, the serum was used to perform 24-element blood chemistry and quantify Trolox-equivalent TAC [86], TNF-α [87], and IL-6 levels using commercial kits from Merck (Darmstadt, Germany), Sigma-Aldrich (St. Louis, MO, USA), Cat. No. MAK334-1KT, RAB0479-1KT, and RAB0311-1KT, respectively. In addition, insulin was quantified using the Rat Ins1/Insulin ELISA Kit, from Sigma-Aldrich, No. Cat. RAB0904-1KT [89] to determine the HOMA-IR index. All kits were performed according to the manufacturer’s instructions without modifications.

[1] = test system: STZ-HFD-induced T2D Wistar rats; assay: Acute evaluation of blood glucose in STZ-HFD-induced T2D model; assay type: in vivo, rat; settings: 8d 32 mg/Kg oral
Description: In vivo experiments were conducted in an acute and a subchronic model, where Wistar rats (180–220 g) were used. The study covered a total period of 10 weeks and was carried out under the Mexican Standard, and the “Guide for the Care and Use of Laboratory Animals” of the National Research Council and Health Institutes was followed.
At first, animals were housed in polypropylene cages under conditions of controlled temperature (20–25 °C), relative humidity (36–60%), and light/dark cycles, with water ad libitum. Before starting the experiment, they were given a one-week acclimatization period to adapt to their new habitat. Once finalized, animals were fed an HFD for 3 weeks to generate insulin resistance.
After this period, the animals fasted for 12 h and then were administered intraperitoneally with a single dose of 35 mg/Kg of STZ dissolved in a buffer of 0.1 M citrate, pH 4.5 (prepared on the same day of administration). […]
One week after administration, postprandial blood glucose levels were measured by venipuncture using a glucometer. […]
Once the experimental groups were formed, a fixed schedule was established for the daily oral administration of the respective treatments. […] On the third day of treatment, postprandial blood glucose was measured with a glucometer Freestyle® (Abbott Diabetes Care, Alameda, CA, USA), extracting a drop of blood from the caudal vein of each rat. […]

male Wistar rat = assay: Acute oral toxicity, Up and Down procedure (OECD 425); assay type: in vivo; set-up: Heart weight / IWA (initial weight of animals) / FWA (final weight of animals) / Spleen weight / Liver weight / Intestine weight / Stomach weight / Kidney weight: unit not given here
Description: All synthesized compounds (8c, 8d, and 12d as a racemic mixture) were suspended in 2% Tween 80 in water and administered orally by an esophageal cannula following the “Up and Down” methodology. Nevertheless, compounds could not be solubilized in the desired volume to complete the highest dose (1750 mg/Kg), so the toxicity test was performed with a maximum dose of 1250 mg/Kg. Even so, the values obtained indicate that these compounds are classified within toxicity category 4 according to the guidelines established by the Organization for Economic Co-operation and Development (OECD).
The “Up and Down” procedure of OECD Guideline 425 was used to estimate the LD50 value of synthesized compounds. Briefly, a dose of 175 mg/Kg was administered to a male Wistar rat, which was monitored continuously for 48 h. As the animal survived, a second animal received a dose of 550 mg/Kg, and, as it survived, a third animal received an increasing dose of 1750 mg/Kg. Finally, two other rats were administered the same dose. All animals were kept under observation for 14 days, and 24 h later, they were taken to the humane endpoint for macroscopic examination of organs and tissues. Finally, the LD50 value of the compounds was estimated to determine their degree of toxicity and classified based on the GHS of Classification and Labeling of Chemicals.

FRAP assay = assay: FRAP assay
Description: All synthesized compounds were evaluated at 30 μM, 50 μM, 70 μM, 90 μM, and 110 μM under two of the most widely used methods in research to directly measure the antioxidant and anti-radical intrinsic capacity, FRAP, and ABTS assay, which were validated by a dose–response curve of 5-ASA as a reference. In the same way, these tests were carried out in triplicate using an assay kit (from Pharmaceutical and Biotechnological Innovation-Services) according to the manufacturer’s instructions.

ALR2 enzyme = target: T1, ALR2 enzyme (Homo sapiens, UniProt P15121); assay: ALR2 activity assay kit (ab273276), inhibition; assay type: biochemical; settings: Inhibitor concentration;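 note: inhibition calculated from the rate of NADPH cofactor consumption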
T1 construct: purchased ab273276

[2] = 1250 mg/Kg oral, necropsy, mean ± SEM

COC(=O)[C@H](Cc1ccccc1)N/C(=N\c1nc2ccccc2s1)SC [8d, Methyl (E)-((benzo[d]thiazol-2-ylimino)(methylthio)methyl)-L-phenylalaninate]
TNF-α (TNF-α; Table S11, After 5 weeks of treatment): 5417.72 ± 2104.18 pg/mL
TNF-α (TNF-α; serum, end of treatment, mean ± SEM, n = 4): 5417.72 ± 2104.2 pg/mL
blood glucose after a single administration, without prior fasting [1]: ~ 200 mg/dL
FWA (final weight of animals) (male Wistar rat; 1250 mg/Kg oral, after 14 days, mean ± SEM): 310.57 ± 11.6
IWA (initial weight of animals) (male Wistar rat; 1250 mg/Kg oral, mean ± SEM): 201.0 ± 7.17
Heart weight (male Wistar rat; [2]): 1.30 ± 0.03
Intestine weight (male Wistar rat; [2]): 29.97 ± 0.72
Kidney weight (male Wistar rat; [2]): 2.97 ± 0.03
Liver weight (male Wistar rat; [2]): 17.57 ± 0.50
Spleen weight (male Wistar rat; [2]): 0.67 ± 0.07
Stomach weight (male Wistar rat; [2]): 1.70 ± 0.10
toxicity category (OECD) (male Wistar rat; maximum dose 1250 mg/Kg oral): 4
Percentage reduction of ferric ion to ferrous ion (FRAP) (FRAP assay; 30 µM): 12.7%
Percentage reduction of ferric ion to ferrous ion (FRAP) (FRAP assay; 50 µM): 14.1%
Percentage reduction of ferric ion to ferrous ion (FRAP) (FRAP assay; 70 µM): 15.1%
Percentage reduction of ferric ion to ferrous ion (FRAP) (FRAP assay; 90 µM): 16.9%
Percentage reduction of ferric ion to ferrous ion (FRAP) (FRAP assay; 110 µM): 18.4%
relative ALR2 inhibition (ALR2 enzyme): 98.000%
